The test system of this assay is AKT1 gene. Kind of assay: Real-time PCR, AKT1 gene expression. The conditions noted are these: relative to untreated control (1). Type of assay: cell-based, human. The protocol: The expression level of the following six genes (Ki-67, Survivin, Interleukin-1 beta (IL-1B), Interleukin-6 (IL-6), Cyclooxygenase-2 (COX-2) and protein kinase B (AKT1)) was determined in MCF7 and HEP2 treated with the IC50 of compound 5c. The untreated cells were used as a negative control for comparison purposes. […] Ki-67 is a popular proliferation marker for human tumor cells. […] Survivin is an inhibitor of apoptotic protein (IAP) family member, which is essential for cell division. The lowering of the expression of survivin inhibited tumor development, triggered apoptosis, and made tumor cells more susceptible to radiation and chemotherapy (Albadari and Li [2023]). […] IL-1B is a pleiotropic mediator of inflammation, which is produced in response to a variety of stressors (Aarreberg et al. [2019]). […] IL-6 is a pro-inflammatory cytokine that plays a significant role in the proliferation and differentiation of human cells. It promotes the production of numerous proteins involved in acute inflammation (Uciechowski and Dempke [2020]). […]
The expression level of the following six genes (Ki-67, survivin, AKT1, IL-6, COX2, and IL-1B) was examined using real-time polymerase chain reaction (qPCR) (Mohamed et al. [2023a]). […] The cycle threshold (Ct) was determined automatically. […]
In general terms: Real-time PCR tracks product formation cycle by cycle.

Structures are written as SMILES.

One molecule from article PMC11582173, “Synthesis, cytotoxicity, anti-inflammatory, anti-metastatic and anti-oxidant activities of novel chalcones incorporating 2-phenoxy-N-arylacetamide and thiophene moieties: induction of apoptosis in MCF7 and HEP2 cells” (Naunyn-Schmiedeberg's Archives of Pharmacology, 2024) can be followed below.

In the case of `COc1ccc(NC(=O)COc2ccc(C=CC(=O)c3cccs3)cc2)cc1` [Compound 5c, N-(4-Methoxyphenyl)-2-(4-(3-oxo-3-(thiophen-2-yl)prop-1-en-1-yl)phenoxy)acetamide], the AKT1 expression folding is, setting by setting: (HEP2 cells treated with IC50 of 5c) 0.381±0.011 fold; (MCF7 cells treated with IC50 of 5c) 0.402±0.068 fold.
